Our source for the IC50 values is ChEMBL document CHEMBL1135200, “Inhibition of the U1A-RNA complex by an aminoacridine derivative” (Bioorg Med Chem Lett, 2002).

Assay [1] in a line: Ability to inhibit formation of the TatTAR complex by binding to the closing GC or CG base pair and adjacent nucleotides of loops in the TAR RNA.
The test system of assay [2] is Nucleic Acid. In words: Ability to inhibit the formation of the U1A-stem loop 2 RNA complex using gel mobility shift assay. It is filed as nucleic-acid assay.
The test system of assay [3] is Nucleic Acid. The experiment in a line: Ability to inhibit the […]-RNA complex formation. It is filed as nucleic-acid assay.

As usually defined, the IC50 is the point on the concentration scale where inhibition reaches its midpoint. As to `Nc1nc(N)c2c(N)c(N)ccc2n1`, the IC50 in assay [1] turned out to be 10 µM; with Nucleic Acid [2], 10000 µM.
Turning to `COc1ccc2nc3cc(Cl)ccc3c(NCCCN(CCCN)CCCCN)c2c1`, the IC50 came to 22 µM in assay [1], 1 µM in the assay on Nucleic Acid [3] and 1 µM with Nucleic Acid [2].
